Source: the supplement of paper PMC10307832

How the values were obtained:
Test in all cases: relative viability (nuclei count vs DMSO), 5 days (fraction); higher = more cells survive
NCI-H838 = tested on: NCI-H838
Summary of the method: (§1)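 Values are medians from duplicate plates. Each reflects relative viability, defined as the nuclei count of treated wells over that of vehicle wells. Lung cancer cell lines in 1536-well plates were pin-tool dosed one day after seeding with one drug alone or with a fixed anchor-drug dose plus five library-drug doses (not always all listed) in √10 steps, then fixed, stained and imaged at 4× after 5 days.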

NCI-H1666 = tested on: NCI-H1666
Summary of the method: as §1

HCC-44 = tested on: HCC-44
Summary of the method: as §1

COR-L23 = tested on: COR-L23
Summary of the method: as §1

NCI-H1792 = tested on: NCI-H1792
Summary of the method: as §1

NCI-H1437 = tested on: NCI-H1437
Summary of the method: as §1

NCI-H650 = tested on: NCI-H650
Summary of the method: as §1

HCC-15 = tested on: HCC-15
Summary of the method: as §1

BEN = tested on: BEN
Summary of the method: as §1

A-427 = tested on: A-427
Summary of the method: as §1

EKVX = tested on: EKVX
Summary of the method: as §1

NCI-H23 = tested on: NCI-H23
Summary of the method: as §1

SK-MES-1 = tested on: SK-MES-1
Summary of the method: as §1

NCI-H441 = tested on: NCI-H441
Summary of the method: as §1

HARA = tested on: HARA
Summary of the method: as §1

HCC-827 = tested on: HCC-827
Summary of the method: as §1

NCI-H596 = tested on: NCI-H596
Summary of the method: as §1

NCI-H358 = tested on: NCI-H358
Summary of the method: as §1

NCI-H1650 = tested on: NCI-H1650
Summary of the method: as §1

NCI-H1975 = tested on: NCI-H1975
Summary of the method: as §1

201T = tested on: 201T
Summary of the method: as §1

SMILES: COc1nc(C)cnc1NS(=O)(=O)c1cccnc1-c1ccc(-c2nnco2)cc1 [Zibotentan] + C[C@@H](Oc1cc(-c2cnn(C3CCNCC3)c2)cnc1N)c1c(Cl)ccc(F)c1Cl [Crizotinib] (partner 1 µM)
- relative viability (NCI-H838; first compound 0.08 µM): 0.918
- relative viability (NCI-H838; first compound 0.253 µM): 0.826
- relative viability (NCI-H838; first compound 0.8 µM): 0.82
- relative viability (NCI-H838; first compound 2.53 µM): 0.848
- relative viability (NCI-H1666; first compound 0.08 µM): 1.01
- relative viability (NCI-H1666; first compound 0.253 µM): 0.856
- relative viability (NCI-H1666; first compound 0.8 µM): 1.15
- relative viability (NCI-H1666; first compound 2.53 µM): 0.996
- relative viability (HCC-44; first compound 0.08 µM): 0.777
- relative viability (HCC-44; first compound 0.253 µM): 0.761
- relative viability (HCC-44; first compound 0.8 µM): 0.872
- relative viability (HCC-44; first compound 2.53 µM): 0.772
- relative viability (COR-L23; first compound 0.08 µM): 0.838
- relative viability (COR-L23; first compound 0.253 µM): 0.65
- relative viability (COR-L23; first compound 0.8 µM): 0.68
- relative viability (COR-L23; first compound 2.53 µM): 0.758
- relative viability (NCI-H1792; first compound 0.08 µM): 1.19
- relative viability (NCI-H1792; first compound 0.253 µM): 0.949
- relative viability (NCI-H1792; first compound 0.8 µM): 0.884
- relative viability (NCI-H1792; first compound 2.53 µM): 0.99
- relative viability (NCI-H1437; first compound 0.08 µM): 0.924
- relative viability (NCI-H1437; first compound 0.253 µM): 0.853
- relative viability (NCI-H1437; first compound 0.8 µM): 0.977
- relative viability (NCI-H1437; first compound 2.53 µM): 0.989
- relative viability (NCI-H650; first compound 0.08 µM): 0.856
- relative viability (NCI-H650; first compound 0.253 µM): 0.661
- relative viability (NCI-H650; first compound 0.8 µM): 0.705
- relative viability (NCI-H650; first compound 2.53 µM): 0.792
- relative viability (HCC-15; first compound 0.08 µM): 0.918
- relative viability (HCC-15; first compound 0.253 µM): 0.748
- relative viability (HCC-15; first compound 0.8 µM): 0.843
- relative viability (HCC-15; first compound 2.53 µM): 0.885
- relative viability (BEN; first compound 0.08 µM): 0.803
- relative viability (BEN; first compound 0.253 µM): 0.724
- relative viability (BEN; first compound 0.8 µM): 0.989
- relative viability (BEN; first compound 2.53 µM): 1.02
- relative viability (A-427; first compound 0.08 µM): 0.858
- relative viability (A-427; first compound 0.253 µM): 0.91
- relative viability (A-427; first compound 0.8 µM): 0.904
- relative viability (A-427; first compound 2.53 µM): 0.84
- relative viability (EKVX; first compound 0.08 µM): 0.875
- relative viability (EKVX; first compound 0.253 µM): 0.733
- relative viability (EKVX; first compound 0.8 µM): 0.848
- relative viability (EKVX; first compound 2.53 µM): 1.03
- relative viability (NCI-H23; first compound 0.08 µM): 0.54
- relative viability (NCI-H23; first compound 0.253 µM): 0.552
- relative viability (NCI-H23; first compound 0.8 µM): 0.565
- relative viability (NCI-H23; first compound 2.53 µM): 0.593
- relative viability (SK-MES-1; first compound 0.08 µM): 1.12
- relative viability (SK-MES-1; first compound 0.253 µM): 1.02
- relative viability (SK-MES-1; first compound 0.8 µM): 0.969
- relative viability (SK-MES-1; first compound 2.53 µM): 0.932
- relative viability (NCI-H441; first compound 0.08 µM): 0.772
- relative viability (NCI-H441; first compound 0.253 µM): 0.599
- relative viability (NCI-H441; first compound 0.8 µM): 0.982
- relative viability (NCI-H441; first compound 2.53 µM): 0.898
- relative viability (HARA; first compound 0.08 µM): 1.03
- relative viability (HARA; first compound 0.253 µM): 0.993
- relative viability (HARA; first compound 0.8 µM): 1.02
- relative viability (HARA; first compound 2.53 µM): 1.18
- relative viability (HCC-827; first compound 0.08 µM): 0.944
- relative viability (HCC-827; first compound 0.253 µM): 0.955
- relative viability (HCC-827; first compound 0.8 µM): 0.946
- relative viability (HCC-827; first compound 2.53 µM): 0.987
- relative viability (NCI-H596; first compound 0.08 µM): 0.942
- relative viability (NCI-H596; first compound 0.253 µM): 0.898
- relative viability (NCI-H596; first compound 0.8 µM): 0.989
- relative viability (NCI-H596; first compound 2.53 µM): 0.957
- relative viability (NCI-H358; first compound 0.08 µM): 0.581
- relative viability (NCI-H358; first compound 0.8 µM): 0.665
- relative viability (NCI-H358; first compound 2.53 µM): 0.617
- relative viability (NCI-H1650; first compound 0.08 µM): 1.05
- relative viability (NCI-H1650; first compound 0.8 µM): 1.01
- relative viability (NCI-H1650; first compound 2.53 µM): 0.925
- relative viability (NCI-H1975; first compound 0.08 µM): 1.04
- relative viability (NCI-H1975; first compound 0.253 µM): 0.871
- relative viability (NCI-H1975; first compound 0.8 µM): 0.837
- relative viability (NCI-H1975; first compound 2.53 µM): 0.967
- relative viability (201T; first compound 0.08 µM): 1.03
- relative viability (201T; first compound 0.253 µM): 0.992
- relative viability (201T; first compound 0.8 µM): 1.04
- relative viability (201T; first compound 2.53 µM): 1.07
